Measured values published in patent US9782399B2, “Pharmaceutical compositions which inhibit FKBP52-mediated regulation of androgen receptor function and methods of using same” (The United States of America, as represented by the …, priority 2009, dated 2017).

Molecular target: T1, wild type human AR (Homo sapiens, UniProt P10275)
T1 construct: expressed in transfected cells; host or cells: Saccharomyces cerevisiae W303 (PDR5 deleted)
T1 sequence (P10275 1-920): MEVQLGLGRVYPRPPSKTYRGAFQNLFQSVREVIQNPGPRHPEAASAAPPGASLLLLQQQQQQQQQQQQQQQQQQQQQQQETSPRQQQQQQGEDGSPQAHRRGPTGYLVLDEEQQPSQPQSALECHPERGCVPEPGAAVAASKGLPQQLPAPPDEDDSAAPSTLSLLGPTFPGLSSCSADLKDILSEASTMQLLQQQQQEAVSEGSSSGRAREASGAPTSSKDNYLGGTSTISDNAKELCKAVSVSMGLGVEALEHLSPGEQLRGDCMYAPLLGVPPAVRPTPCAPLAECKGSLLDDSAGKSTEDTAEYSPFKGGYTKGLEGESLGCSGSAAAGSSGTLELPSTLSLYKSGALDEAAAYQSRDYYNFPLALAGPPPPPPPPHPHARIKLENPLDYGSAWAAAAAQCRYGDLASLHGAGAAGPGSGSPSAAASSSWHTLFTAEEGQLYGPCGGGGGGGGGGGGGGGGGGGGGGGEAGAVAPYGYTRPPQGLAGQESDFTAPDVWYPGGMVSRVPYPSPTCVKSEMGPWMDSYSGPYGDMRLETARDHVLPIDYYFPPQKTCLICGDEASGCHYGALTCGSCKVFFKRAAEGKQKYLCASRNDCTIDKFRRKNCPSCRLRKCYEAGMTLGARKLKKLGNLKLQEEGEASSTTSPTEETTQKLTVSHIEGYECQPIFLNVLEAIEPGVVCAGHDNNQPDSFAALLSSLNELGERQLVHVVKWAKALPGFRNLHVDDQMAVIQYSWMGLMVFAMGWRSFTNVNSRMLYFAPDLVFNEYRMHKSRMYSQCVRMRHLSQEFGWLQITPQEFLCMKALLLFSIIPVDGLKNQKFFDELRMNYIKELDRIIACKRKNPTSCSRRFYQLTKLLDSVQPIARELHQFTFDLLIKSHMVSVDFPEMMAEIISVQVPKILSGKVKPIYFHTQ
Assay: Yeast AR-mediated β-galactosidase reporter assay, control strain (wild type AR alone)
Assay type: cell-based
Conditions: without FKBP52
From the text: The yeast host strain used to make these four strains, W303, has his3, trp1 and ura3 mutations, so that growth on media lacking tryptophan, histidine and uracil requires the presence of all three plasmids. The URA3-marked steroid receptor-mediated β-galactosidase reporter plasmid (pUCΔss-26X) was the gift of Dr. Brian Freeman, University of Illinois. The pleiotropic drug resistance 5 (PDR5) gene was deleted in this strain, because PDR5 is an ATP-binding cassette transporter that could potentially transport the test compounds out of the cells, thereby hindering their identification. By deleting PDR5, this potential problem is avoided. […]
The strains were cultivated overnight using a shaking incubator in SC-HUW medium (synthetic complete medium lacking histidine, uracil and tryptophan). […] About one hour later, the plate was read in a luminometer. The measured RLU (relative light units) was normalized to the cell density of the cultures, at the time they were added to the plates, to give a measure of RLU/OD unit. […]
The inventors began testing compounds in the assay by starting with a standard concentration of about 50 μM for all compounds tested. […] The plates are incubated for approximately another 1-3 hours, preferable about 1 hour and 30 minutes, and the light emission is measured on a microplate luminometer (Luminoskan Ascent, Thermo Labsystems). […]

Cc1ccc(NC(=O)c2ccccc2C(=O)O)cc1C [Compound 1]
effect on AR function alone: does not affect AR function alone
